Data reported in patent US8207206B2, “(S,R)-3-phenyl-4,5 dihydro-5-isoxazole acetic acid-nitric oxide and use thereof as anti-cancer and antiviral agent” (OncoNOx APS, priority 2007, dated 2012).

Assays:
B16 cells [1] = test: Autophagy detection by acridin orange staining (flow cytometry); assay type: cell-based, mouse; conditions: B16, 25 μg/ml, 24 h
Description: (§1) As a marker of necrotic cell death, the release of intracellular enzyme LDH, which mediates the conversion 2,4-dinitrophenylhydrazine into visible hydrazone precipitate in the presence of pyruvate, was measured. The cells were seeded in flat-bottom 96-well plates as indicated above and the assay was performed after 24 h incubation, as previously described (Decker et al). The percentage of dead cells was determined using the following formula: [(E−C)/(T−C)]×100, wherein E is the experimental absorbance of treated cultures measured at 492 nm, C is the absorbance of supernatants of control untreated cells, and T is the absorbance corresponding to the maximal (100%) LDH release of Triton-lysed cells. Cell cycle analysis and apoptosis detection were carried out exactly as described in the literature (Mijatovic CMLS 2005). Acidic vesicular organelles, which characterise autophagy, are stained by vital dye acridin orange. The intensity of red fluorescence is proportional to the acidity and volume of the organelles, while the cytoplasm and nucleolus emits bright green and dim red (Kanzawa 2004). […] Green (510-530 nm) and red (>650 nm) fluorescence emission from 10^4 cells illuminated with blue (488 nm) excitation light was measured with a FACS Calibur and analyzed using CellQuest software.

B16 cells [2] = test: Cell cycle analysis and apoptosis detection (PI staining, flow cytometry); assay type: cell-based, mouse; conditions: B16, 25 μg/ml, 24 h
Description: as §1

L929 cells [3] = test: as above; assay type: cell-based, mouse; conditions: L929, 25 μg/ml, 24 h
Description: as §1

[4] = tested on: MAP kinases (p38 MAPK, ERK, JNK) in C6 cells; test: Cell-based ELISA for activation of MAP kinases; parameters: species or system rat; conditions: C6, 25 μg/ml, time course
Description: Activation of MAP kinases (p38 MAPK, extracellular signal-regulated kinase—ERK, and Jun-N-terminal kinase—JNK) or nuclear factor-κB (NF-κB) was determined by means of a slightly modified method of cell-based ELISA by Versteeg et al. (Versteeg 2000). Since MAP kinases are activated by phosphorylation, and phosphorylation of the inhibitory subunit IκB is a necessary step for NF-κB activation, we used antibodies specific for phosphorylated forms of MAP kinases (p-p38, p-ERK and p-JNK) and IκB (p-IκB). The cells were grown overnight in 96-well flat-bottom plates in a culture medium containing 0.5% FCS and then treated with the test compound diluted in conventional culture medium. At the end of treatment period the cells were fixed in 4% parformaldehyde, endogenous peroxydase was quenched with 1% H2O2 in PBS containing 0.1% Triton X-100 (PBST), and unspecific binding of antibodies was blocked with a PBST solution containing 10% FCS. Primary mouse monoclonal antibodies specific for rat/mouse p-ERK, p-p38, p-JNK, p-IκB (1:200; all from Santa Cruz Biotechnology, Santa Cruz, Calif.) were applied in PBST supplemented with 2% bovine serum albumine (PBSTB), followed by secondary peroxidase-conjugated goat anti-mouse IgG (1:2500 in PBSTB; USB corporation, Cleveland, Ohio) for anti-p-ERK, anti-p-JNK and anti-p-IκB, or anti-mouse IgM (1:4000; USB corporation) for detection of anti-p-p38. Incubation with antibodies was carried out at 37° C. for 1 h. After 15 min incubation with peroxydase substrate TMB and subsequent addition of 0.1 M HCl, the absorbance at 450 nm was measured in an automated microplate reader. To enable comparison between treatment and control, the resulting absorbances were corrected for the cell number determined by crystal violet staining, as described in the original protocol. The results are presented as relative expression in comparison with the control value, which was arbitrarily set to 1.

C6 cells [5] = test: Nitrite accumulation (Griess reaction); assay type: cell-based, rat; conditions: 24 h
Description: Nitrite accumulation was measured by Griess reaction as previously described (Mijatovic et al CMLS 2004).

C6 cells [6] = test: LDH release assay (cell death); assay type: cell-based, rat; conditions: C6, dose-dependent (24 h) and time-dependent (25 μg/ml), significant after 18 h
Description: as §1

C6 cells [7] = test: ROS measurement by DHR fluorescence (flow cytometry); assay type: cell-based, rat; conditions: C6, 25 μg/ml, 24 h
Description: The cells grown in the 6-well plate were stained with 1 μM dihydrorhodamine 123 (DHR) 20 min before the treatment with the test compound. At the end of the cultivation period the cells were detached, washed and resuspended in PBS. Analysis of ROS release was performed with a FACSCalibur and analyzed using CellQuest Pro software (Kaludjerovic 2005).

B16 cells [8] = test: CFSE staining, tumor cell proliferation rate (flow cytometry); assay type: cell-based, mouse; conditions: B16, GIT27-NO 25 μg/ml, after 48 h; control 2.00%
Description: (§2) The cells were seeded in flat-bottom 96-well plates (10^4 cells/well) in a final volume of 200 μl of culture medium, incubated overnight, then treated with different concentrations of the test compound. After 24 h incubation, cell viability was assessed using 3-4,5-dimethylthiazol-2-yl)-2,5-diphenyltetrazolium bromide (MTT) test, based on the mitochondrial-dependent reduction of MTT to formazan, or by crystal violet (CV) staining of adherent cells, as previously described (Mijatovic et al CMLS 2004). The results are presented as % of control values obtained in untreated cultures. The rate of cell proliferation was also determined using flow cytometric analysis of cells labeled with CFSE (Kang 2005). The cells were detached, added with 1.5 μM CFSE and allowed to stand for 15 min at 37° C., then washed twice and seeded in 6-well plates at 2×10^5. The cells were treated with the compound for 24 and 48 h, trypsinized and washed twice. Finally, the cells were resuspended in PBS and analyzed by flow cytometry. Green fluorescence emission from cells illuminated with excitation light of 488 nm was measured with a FACS Calibur (BD, Heidelberg, Germany) and analyzed using the CellQuest software.

L929 cells [9] = test: as above; assay type: cell-based, mouse; conditions: L929, GIT27-NO 25 μg/ml, after 48 h; control 7.26%
Description: as §2

B16 melanoma = B16 melanoma in C57BL/6 mice, treatment with GIT27-NO; assay type: in vivo
Description: Primary tumors were induced by subcutaneous (s.c) injection of 2×10^5 B16 melanoma cells in the dorsal right lumbosacral region of syngeneic C57BL/6 mice. […] GIT27-NO was prepared immediately before treatment and was applied i.p. at a dose of 0.5 mg/mouse for 14 consecutive days. The animals were observed until day 30, then sacrificed and tumor growth was determined by three-dimensional measurements of individual tumors from each mouse. Tumor volume was calculated using the following formula: [0.52×a×b^2], where a is the longest and b is the shortest diameter (Smagur et al).

## N#Cc1c(COC(=O)CC2CC(c3ccccc3)=NO2)no[n+]1[O-] (racemic) [GIT27-NO, (S,R)-3-phenyl-4,5 dihydro-5-isoxazole acetic acid-nitric oxide]
B16 cells [1]
  acidic autophagic vesicles (red fluorescence of acridin orange): significantly increased the intensity of bright red fluorescence
B16 cells [2]
  percentage of cells in subG compartment (hypodiploid cells): < 10%
L929 cells [3]
  proportion of hypodiploid cells (subG compartment): significantly increased proportion of hypodiploid cells
[4]
  activation of ERK1/2: permanent activation
  activation of JNK: permanent activation
  activity of p38: not affected
C6 cells [5]; in the absence of cells
  accumulation of nitrites (NO release) in culture media alone: failed to release NO and to form nitrites
C6 cells [5]; in the presence of C6 cells
  accumulation of nitrites in cell culture supernatants: significant amount of nitrites
C6 cells [6]
  LDH release: induced LDH release
C6 cells [7]
  intracellular production of ROS (DHR fluorescence): markedly increased
B16 cells [8]
  CFSE R1 = parent population: 6.90%
L929 cells [9]
  CFSE R1 = parent population: 13.23%
B16 melanoma; B16 melanoma, 0.5 mg/mouse/day from day 10
  tumor growth compared to untreated control animals: significant reduction of tumor growth
B16 melanoma; B16 melanoma, 30 days follow-up, 2 animals died in control group
  survival during follow-up period: survived 30 days
B16 melanoma; s.c. B16 melanoma, i.p. 0.5 mg/mouse/day from day 10, measured 30 days after implantation, control 2.97 ± 6.4, p < 0.05
  Mean tumor volume: 0.82 ± 1.2
